{
  "source": "patent US20060241143A1",
  "about": "“Combination of paroxetine and 2-methoxy-5-(5-trifluoromethyl-tetrazol-1-yl-benzyl)-(2s-phenyl-piperidin-3s-yl)-amine for treatment of depression and/or anxiety” (priority 2003, published 2006)",
  "test_system": "mongolian gerbils",
  "assay": "gerbil social interaction model (time spent in active social interactions)",
  "assay_type": "in vivo",
  "conditions": "0.03 mg/kg i.p. (as free base), one hour after administration",
  "procedure": "Paroxetine hydrochloride hemihydrate (0.3 mg/kg p.o of the paroxetine measured as the free base), 2-methoxy-5-(5-trifluoromethyl-tetrazol-1-yl-benzyl)]-(2S-phenyl-piperidin-3S-yl)-amine dihydrochloride (hereinafter compound A) (0.03 mg/kg i.p of the compound A measured as the free base) and a combination of paroxetine (0.3 mg/kg p.o. of the paroxetine measured as the free base) and compound A (0.03 mg/kg i.p. of the compound A measured as the free base) were administered independently in mongolian gerbils to assess the effect on time spent in active social interactions.\nThe results obtained one hour after administration, expressed as a percentage variation of the time spent in active social interactions by each animal in respect to the value obtained by treatment of control animals, are summarised in table 1.",
  "data": [
    {"smiles": "COc1ccc(-n2nnnc2C(F)(F)F)cc1CN[C@H]1CCCN[C@H]1c1ccccc1.Cl.Cl", "note": "[Compound A]", "values": [
      {"measurement": "% Variation of the time spent in active social interactions in respect to control animals", "result": "+19.9%"}
    ]}
  ]
}
